Values of other authors in US11122832B2, “Methods and compositions to improve weight loss and cardiometabolic health beyond diet and excercise” (Nature's Sunshine Products, Inc., priority 2016, dated 2021).
Read-outs that look alike come from different tables or passages of the source.

How the values were obtained:
[1] = tested on: plasma concentration of NOx; conditions: 6 g, over 120 minutes, healthy individuals with normal plasma ADMA
[2] = not given; remark: listed apart in the source

Question: For `O=NO` [NO2, nitrite], which “filtered amount reabsorbed in the renal tubules” value (estimated) is on record?
Answer: 96%

Question: For `[N]=O` [NO, Nitric oxide], which “half-life of NO once produced through NOS” value (in vivo) is on record?
Answer: approximately 1 second

Question: With `O=[N+]([O-])O` [NO3, nitrate] as the molecule, how does the “bioavailability of dietary NO3” value (dietary (oral)) read?
Answer: 100%

Question: What about the “clearance from blood to urine” value (in adults) of the same molecule?
Answer: approximately 20 mL/min

Question: What about the “time to peak plasma concentration” value (orally consumed) of the same molecule?
Answer: approximately 1 hour

Question: And the “half-life of plasma NO3” value (plasma)?
Answer: 5 to 8 h

Question: For `N=C(N)NCCC[C@H](N)C(=O)O` [L-arginine], which “plasma concentration of NOx after acute supplementation” value [1] is on record?
Answer: does not increase

Question: With `CCCCCCCCCCC[C@@H](C[C@@H]1OC(=O)[C@H]1CCCCCC)OC(=O)[C@H](CC(C)C)NC=O` [Orlistat] as the molecule, how does the “≥5% weight loss responders” value ([2]; Period 24 weeks) read?
Answer: 42%

Question: And the “≥10% weight loss responders” value ([2]; Period 24 weeks)?
Answer: 15%

Question: What about the “≥5% weight loss responders” value ([2]; Period 24 weeks, listed as orlistat) of the same molecule?
Answer: 42%

Question: With `C[C@H]1CNCCc2ccc(Cl)cc21` [Lorcaserin] as the molecule, how does the “Responders (5% weight loss)” value ([2]; Evaluation 12 weeks, BID 10 mg, placebo 12%) read?
Answer: 36%

Question: What about the “≥10% weight loss responders” value ([2]; Period 56 weeks, placebo 9%) of the same molecule?
Answer: 22%

Question: What about the “≥5% weight loss responders” value ([2]; Period 56 weeks, placebo 23%) of the same molecule?
Answer: 47%
